The text below walks through data of patent US20190151283A1, “NON-STEROIDAL SELECTIVE GLUCOCORTICOID RECEPTOR AGONISTIC MODULATORS (SEGRAMs) AND USES THEREOF” (ASSOCIATION POUR LA RECHERCHE À L'IGBMC (ARI), priority 2017, published 2019).

The target of data set [1] is T1, glucocorticoid receptor (GR) (Mus musculus, UniProt P06537).
T1 construct: RNA transcripts were then extracted from mouse ears; from tissue; host or cells: ear skin of Balb/C mice (in vivo topical treatment)
T1 sequence (P06537 1-792): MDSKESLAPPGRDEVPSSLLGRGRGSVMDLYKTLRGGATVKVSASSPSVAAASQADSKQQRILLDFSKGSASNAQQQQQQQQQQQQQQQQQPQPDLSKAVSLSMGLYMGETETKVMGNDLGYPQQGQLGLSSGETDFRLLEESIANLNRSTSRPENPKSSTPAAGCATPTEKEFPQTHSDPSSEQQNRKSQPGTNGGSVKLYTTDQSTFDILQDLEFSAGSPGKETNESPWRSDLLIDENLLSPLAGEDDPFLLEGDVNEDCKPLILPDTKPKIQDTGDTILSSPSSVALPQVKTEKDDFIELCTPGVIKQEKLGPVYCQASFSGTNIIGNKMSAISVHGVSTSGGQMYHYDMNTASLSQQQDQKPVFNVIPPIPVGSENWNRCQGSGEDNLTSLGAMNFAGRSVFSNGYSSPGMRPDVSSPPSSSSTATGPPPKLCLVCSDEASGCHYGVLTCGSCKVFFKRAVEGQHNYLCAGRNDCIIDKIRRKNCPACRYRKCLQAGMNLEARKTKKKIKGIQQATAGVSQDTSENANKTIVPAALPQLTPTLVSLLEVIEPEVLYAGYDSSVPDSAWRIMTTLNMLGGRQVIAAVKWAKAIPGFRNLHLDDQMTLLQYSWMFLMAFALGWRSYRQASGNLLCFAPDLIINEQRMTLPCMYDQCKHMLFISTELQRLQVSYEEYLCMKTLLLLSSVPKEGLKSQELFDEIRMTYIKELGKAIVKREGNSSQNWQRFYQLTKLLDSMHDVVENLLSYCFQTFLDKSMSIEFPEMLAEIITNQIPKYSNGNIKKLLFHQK
Briefly: GR transcriptional functions in mouse ears after topical 18-hour treatment (q-RT-PCR). The note with it: in vivo transcriptional analyses, 1 nmole/cm^2. The data set is classed as in vivo. The procedure:
RNA transcripts were then extracted from mouse ears and the transcripts of 4 genes were analyzed by q-RT-PCR: • (i) the directly GR-transactivated gene of the mTOR inhibitor REDD1, • (ii) the GR-directly transrepressed gene of keratin 5 (K5) and • (iii) the GR-indirectly “tethered” transrepressed genes of interleukin-1β (IL-1β) and interleukin-6 (IL-6), both being activated in presence of 12-O-tetradecanoylphorbol-13-acetate (TPA).

The test system of data set [2] is B6 male mice. The data set can be described thus: Bone formation after three-month treatment (micro-CT, WNT16 transcripts). The data set is classed as in vivo, mouse. The following applies: three months. Here is the method: B6 male mice (8-week-old) were daily subjected for three months to either a subcutaneous injection of vehicle (NaCl 0.9%), Dex, CpdX, CpdX(eA), CpdX(eB), CpdX-D3, CpdX-D3(eA) or CpdX-D3(eB) (1 mg/kg body weight, diluted in NaCl 0.9%).
From each animal included in the experiments, one femur and the ipsilateral tibia were dissected and preserved in 70% ethanol for further bone microstructure analysis by micro-CT. The FX Quantum micro-CT scanner (Perkin Elmer) was used to perform measurements at the distal femur and midshaft tibia. All scans were performed with an isotropic voxel size of 10 μm, 160 μA tube current and 90 kV tube voltage.
Morphological 3D measurements were performed using the CTAn software (Bruker). Cortical bone parameters, which were measured in the tibia midshaft, included measures of the bone volume fraction as compared to the total volume, cortical thickness, total area, bone area and marrow area. The region of interest was selected from below the distal tibial crest and continued for 20 slices toward the proximal end of the tibia. Trabecular bone parameters were measured in the distal metaphysis of the femurs and included bone volume fraction, trabecular thickness, trabecular number and trabecular spacing. The region of interest was selected from below the distal growth plate where the epiphyseal cap structure completely disappeared and continued for 100 slices toward the proximal end of the femur.
The statistical significance as compared to vehicle treatment was calculated through one-way ANOVA test followed by Dunn's multiple comparison test, *p<0.05; **p<0.01; ***p<0.001; ****p<0.0001.

The subject of data set [3] is B6 male mice. Briefly: Body weight and body composition after three-month treatment. The following applies: s.c. 1 mg/kg daily, 3 months. The format is in vivo, mouse. The procedure:
B6 male mice (8-week-old) were daily subjected for three months to a subcutaneous injection of either vehicle (NaCl 0.9%), Dex, CpdX or CpdX-D3 (1 mg/kg body weight, diluted in vehicle. A pDEXA machine was used to determine the lean mass and fat mass. The statistical significance was calculated through Krustal-Walis test followed by a Dunn's multiple comparison test, *p<0.05; **p<0.01; ***p<0.001.

Data set [4] deals with B6 male mice. Briefly: Corticosterone synthesis and adrenal gland after three-month treatment. The data set is classed as in vivo, mouse. The procedure:
B6 male mice (8-week-old) were daily subjected for three months to either a subcutaneous injection of vehicle (NaCl 0.9%), Dex, CpdX, CpdX(eA), CpdX(eB), CpdX-D3, CpdX-D3(eA) or CpdX-D3(eB) (1 mg/kg body weight, diluted in vehicle).
Following this long-term treatment, blood was collected at 10 a.m. and 6 p.m. by retro-orbital puncture in lithium-heparin coated vials, and the plasmatic level of corticosterone was determined. Adrenal glands were harvested and weighted. RNA transcripts were extracted and transcripts of the Cyp11a, Cyp11b1, Cyp11b2 and HSD3β genes were analyzed by q-RT-PCR. Histological analyses of the adrenal glands were also carried out.

Data set [5] concerns B6 male mice. Briefly: Insulin level, insulin tolerance test and liver insulin signalling after three-month treatment. The data set is classed as in vivo, mouse. The procedure: B6 male mice (8-week-old) were subjected daily for three months to a subcutaneous injection of either vehicle (NaCl 0.9%), Dex, CpdX, CpdX(eA), CpdX(eB), CpdX-D3, CpdX-D3(eA) or CpdX-D3(eB) (1 mg/kg body weight, diluted in vehicle). After three months, the blood was collected at 10 a.m. by retro-orbital puncture in lithium-heparin coated vials, and the plasmatic level of insulin was determined.
For the intraperitoneal insulin tolerance test (IPITT), mice were fasted for 6 hours before test. The blood glucose concentration was measured both before (T0) and during a one-hour period after insulin i.p. injection (0.75 U/kg body weight).
Following this three-month treatment, liver samples were harvested and lysed in the RIPA buffer (20 mM Tris pH 8, 150 mM NaCl, 10% glycerol, 1% NP-40 and 2 mM EDTA). Antibodies from Cell Signaling were used to assess by Western-Blotting the relative level of p-IRS1 (S318), IRS-1, p-AKT (S473) and AKT.

The test system of data set [6] is B6 male mice. Briefly: Organ weights (thymus, spleen, adrenal gland, kidney) after three-month treatment. The data set is classed as in vivo, mouse. The note with it: s.c. 1 mg/kg daily, three months. The procedure:
B6 male mice (8-week-old) were daily subjected for three months to a subcutaneous injection of either vehicle (NaCl 0.9%), Dex, CpdX, CpdX(eA), CpdX(eB), CpdX-D3, CpdX-D3(eA) or CpdX-D3(eB) (1 mg/kg body weight, diluted in vehicle). Following these treatments, four organs (thymus, spleen, adrenal gland and kidney) were harvested and weighted.

Data set [7] deals with Balb/C mice. The data set can be described thus: Skin atrophy after 8-day topical treatment of dorsal skin. The format is in vivo, mouse. The text has this:
To investigate whether, similarly to Dex, a topical administration of CpdX could result in a skin atrophy, Balb/C mice were shaved on the dorsal skin. Ethanol (vehicle), Dex, CpdX or either one of its two enantiomers CpdX(eA) or CpdX(eB), as well as the deuterated form CpdX-D3 or either one of its two enantiomers CpdX-D3(eA) or CpdX-D3(eB), were topically applied onto the dorsal skin for 8 days.
Upon completion of the treatments, RNA transcripts were extracted from dorsal skin samples and the transcripts of Kindlin-1 and REDD1 genes were analyzed by q-RT-PCR. Histological and morphometric analyses of the dorsal skin were also performed.

Data set [8] concerns B6 male mice. The data set can be described thus: Blood glucose and intraperitoneal glucose tolerance test after three-month treatment. The format is in vivo, mouse. The procedure: B6 male mice (8-week-old) were daily subjected for three months to a subcutaneous injection of either vehicle (NaCl 0.9%), Dex, CpdX, CpdX(eA), CpdX(eB), CpdX-D3, CpdX-D3(eA) or CpdX-D3(eB) (1 mg/kg body weight, diluted in vehicle). Mice were over-night-fasted. Mouse blood glucose concentration was measured before (T0) and during two hours (T120) after glucose i.p. injection ([…] body weight).

In data set [9] the test system is B6 male mice. The data set can be described thus: Fatty liver after three-month treatment. The data set is classed as in vivo, mouse. The following applies: three months. Here is the method: B6 male mice (8-week-old) were daily subjected for three months to a subcutaneous injection of either vehicle (NaCl 0.9%), Dex, CpdX, CpdX(eA), CpdX(eB), CpdX-D3, CpdX-D3(eA) or CpdX-D3(eB) (1 mg/kg body weight, diluted in vehicle). Following this treatment, blood was collected at 10 a.m. by retro-orbital puncture in lithium-heparin coated vials. The plasmatic levels of total cholesterol and bile acids were determined.
Liver samples were harvested. […] RNA transcripts were extracted from liver samples and the transcripts of fatty acid synthase (FASN) and Stearoyl-CoA desaturase 1 (SCD1) genes were analyzed by q-RT-PCR.

Data set [10] has as its system B6 male mice. Briefly: Bone formation after three-month treatment (micro-CT, WNT16 transcripts). The note with it: mouse tibia, three months. The format is in vivo.

In the case of `Cc1ccc2c(NC[C@](O)(CC(C)(C)c3cc(F)cc4c3OCC4)C(F)(F)F)cccc2n1` [Mapracorat, reference compound], in data set [1], the “GR functions induced (direct transactivation, direct transrepression, indirect tethered transrepression)” value was “all three GR functions”.

Turning to `C[C@@H]1C[C@H]2[C@@H]3CCC4=CC(=O)C=C[C@]4(C)[C@@]3(F)[C@@H](O)C[C@]2(C)[C@@]1(O)C(=O)CO` [Dex, Dexamethasone, reference compound], in data set [2] (s.c. 1 mg/kg daily, micro-CT), the bone area result is on record as “reduced”, the cortical thickness result is listed as “drastically decreased” and the “tibia cortical bone volume as compared to the total volume” value is given as “significantly decreased”. The marrow area entry in data set [2] (s.c. 1 mg/kg daily, 'but not' = not reduced) was “but not”. Moreover, in [2] (data not shown), the number of trabecula entry was “increase”, the trabecular bone volume result is “increased”, the trabecular spacing entry is on record as “decrease” and the trabecular thickness result is “no change”. Moreover, in data set [3] (pDEXA), the fat mass result is on record as “disproportional increase” and the “lean percentage / lean mass” value was “decrease”. For the same molecule, in data set [3] (compared with vehicle), the body weight entry is on record as “net loss”. Also, in data set [4] (at both 10 a.m. and 6 p.m., compared to control mice (Vehicle)), the plasmatic corticosterone levels result is recorded as “much lower”. The “cortex layers, most notably the fasciculata zone, of the adrenal glands” value in data set [4] (three months, histology) is listed as “drastically decreased”. Moreover, the “glomerulosa zone of the adrenal cortex” value in data set [4] (three months, histology, 'but not' = not decreased) was “drastically decreased”. In addition, the “transcripts of Cyp11a, Cyp11b1 and HSD3β genes in adrenal glands” value in data set [4] (three months, q-RT-PCR) is on record as “inhibited”. In data set [4] (three months, q-RT-PCR, 'but not' = not inhibited), the “transcript of the Cyp11b2 gene in adrenal glands” value is given as “inhibited”. Besides, the “IPITT test, response to insulin” value in [5] (one hour after insulin i.p. 0.75 U/kg) is reported as “significant impaired response to insulin”. Further, in data set [5] (three months, 10 a.m., 'but not' = no hyperinsulinemia), the “blood insulin level (hyperinsulinemia)” value is given as “hyperinsulinemia”. The “phosphorylation of insulin-stimulated protein kinase B (p-AKT S473)” value in data set [5] (western-blot, liver) was “decreased”. Further, in [5] (western-blot, 'but not' = no decrease), the “phosphorylated insulin receptor substrate 1 (p-IRS1 S318) in liver extracts” value is “decrease”. Also, in [6], the kidney weight result is given as “weak, but significant loss”; the “spleen weight decreased by” value is on record as “more than 50%”; the “thymus apoptosis / thymus found” value is “no thymus was found in sixteen out of nineteen mice”; the “weight of the adrenal gland” value was “decreased”. For the same molecule, the “epidermal thickness decreases by” value in [7] (eight-day topical treatment, morphometric analysis) is “≈ 65%”. Further, in [7] (eight-day topical treatment, 'in marked contrast' = no severe atrophy as with Dex), the “skin atrophy, histological analysis” value is recorded as “severely induces a skin atrophy”. Further, the “transcription of the Kindlin-1 gene in dorsal skin” value in data set [7] (topical 8 days, 1 nmole/cm^2, 'but not' = not decreased) is reported as “strongly decreased”. The “transcription of the REDD1 gene in dorsal skin” value in data set [7] (topical 8 days, 1 nmole/cm^2, 'but not' = not increased) is given as “significantly increased”. In addition, in data set [8] (three months, over-night fasting, vs vehicle and CpdX compounds), the blood glucose level entry is on record as “significantly higher”. Further, the “blood glucose level in intraperitoneal glucose tolerance test (IPGTT)” value in data set [8] (two-hour period after glucose i.p. injection (2 mg/kg body weight)) is “significant higher”. Further, the “lipid deposition in the liver” value in data set [9] (5% Red oil staining of frozen sections) is on record as “marked lipid deposition”. In addition, the “transcripts of fatty acid synthase (FASN) and Stearoyl-CoA desaturase 1 (SCD1) in liver” value in data set [9] (q-RT-PCR, 'but not' = no increase) is “increase”. The “blood cholesterol and bile acids' levels” value in [9] ('but not' = no clear increase) is given as “clear increase”. Also, the “transcription of the WNT16 gene decreased by” value in data set [10] is reported as 50%.
